Data published in US9073858B2, “Methods of targeted drug development” (priority 2010, dated 2015).

How the values were obtained:
EGFR = target: T1, EGFR (Homo sapiens, UniProt P00533); test: EGFR in-cell Western (ICW) screening protocol; assay type: cell-based; set-up: unit not given here; settings: listed as 1505
T1 construct: endogenous in cells; host or cells: A431 cells (ATCC CRL-1555)
How it was run: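 Serum-starved cells treated with compound 4 h at 37 °C, then stimulated with EGF (20 or 0 ng/ml solution added) in its continued presence. In-cell Western on fixed cells: phospho-EGFR (800 channel) normalised to total EGFR (700 channel), % inhibition calculated against EGF-stimulated and unstimulated no-compound wells.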

[1] = test system: epithelial carcinoma A431 cell line; test: MTT Cell Proliferation Assay, A431 cell line; assay type: cell-based; settings: 72 h
How it was run: (§1)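 Cells plated overnight, then exposed 3 days at 37 °C, 5% CO2 to compound in growth medium with 0.5% FBS and 0.5% DMSO final (0.5% DMSO as control).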

MDBK line = test: MTT Cell Proliferation Assay, MDBK line; assay type: cell-based, bovine; settings: 72 h; second value of A431/MDBK pair; read-out: MTT-72 h MDBK
How it was run: as §1

[2] = target: T2, EGF binding site, rat liver membranes (Rattus norvegicus, UniProt G3V6K6); test: Inhibition of [125I]EGF binding (NovaScreen EGF inhibitor assay)
T2 construct: Receptor source was rat liver membranes; tissue NovaScreen BioSciences; host or cells: rat liver membranes
Procedure: Identified compounds, representing various pharmacaphore models, were tested for ability to inhibit EGFR at 25 μM.
AD4-compounds were identified using pharmacophore models (see Example 3) and then were docked with the binding site of EGFR (SEQ ID NO: 1) that is recognized by defined CDRs of cetuximab.
Receptor source was rat liver membranes. The radioligand was [^125I]EGF ([…]) at a final ligand concentration of 0.36 nM. A non-specific determinant was used as EGF—[100 nM]. The reference compound and positive control was EGF. Reactions were carried out in 10 mM HEPES (pH 7.4) containing 0.1% BSA at 25° C. for 60 minutes. The reaction was terminated by rapid vacuum filtration onto glass fiber filters. Radioactivity trapped onto the filters was determined and compared to control values to ascertain any interactions of test compounds with the EGF binding site. The EGF inhibitor assays were modified from, for example, Mukku (1984) J. Biol. Chem. 259, 6543-6546; Duh et al. (1990) World J. Surgery 14, 410-418; Lokeshwar et al. (1989) J. Biol. Chem. 264(32), 19318-19326.

[3] = test system: EGF receptor-mediated cell proliferation; test: Combinatorial studies with known EGFR inhibitors, median effect analysis (MTT assay); settings: for DRI @ ED97: Dose Reduction Index
Procedure: Studies were initiated to evaluate the ability of various compounds disclosed herein to synergize with several compounds known to inhibit the function of the EGF receptor in a cell proliferation assay (MTT assay).
The EGFR inhibitor and AD4 compound dilutions were then mixed 1:1 in a 96 well plate. 50 μl of the mix was then added to the cell plate.
A shifting of the inhibitor curve to the left indicates an increase in the effectiveness of the AD4-compound.

T1 sequence (P00533 25-1210): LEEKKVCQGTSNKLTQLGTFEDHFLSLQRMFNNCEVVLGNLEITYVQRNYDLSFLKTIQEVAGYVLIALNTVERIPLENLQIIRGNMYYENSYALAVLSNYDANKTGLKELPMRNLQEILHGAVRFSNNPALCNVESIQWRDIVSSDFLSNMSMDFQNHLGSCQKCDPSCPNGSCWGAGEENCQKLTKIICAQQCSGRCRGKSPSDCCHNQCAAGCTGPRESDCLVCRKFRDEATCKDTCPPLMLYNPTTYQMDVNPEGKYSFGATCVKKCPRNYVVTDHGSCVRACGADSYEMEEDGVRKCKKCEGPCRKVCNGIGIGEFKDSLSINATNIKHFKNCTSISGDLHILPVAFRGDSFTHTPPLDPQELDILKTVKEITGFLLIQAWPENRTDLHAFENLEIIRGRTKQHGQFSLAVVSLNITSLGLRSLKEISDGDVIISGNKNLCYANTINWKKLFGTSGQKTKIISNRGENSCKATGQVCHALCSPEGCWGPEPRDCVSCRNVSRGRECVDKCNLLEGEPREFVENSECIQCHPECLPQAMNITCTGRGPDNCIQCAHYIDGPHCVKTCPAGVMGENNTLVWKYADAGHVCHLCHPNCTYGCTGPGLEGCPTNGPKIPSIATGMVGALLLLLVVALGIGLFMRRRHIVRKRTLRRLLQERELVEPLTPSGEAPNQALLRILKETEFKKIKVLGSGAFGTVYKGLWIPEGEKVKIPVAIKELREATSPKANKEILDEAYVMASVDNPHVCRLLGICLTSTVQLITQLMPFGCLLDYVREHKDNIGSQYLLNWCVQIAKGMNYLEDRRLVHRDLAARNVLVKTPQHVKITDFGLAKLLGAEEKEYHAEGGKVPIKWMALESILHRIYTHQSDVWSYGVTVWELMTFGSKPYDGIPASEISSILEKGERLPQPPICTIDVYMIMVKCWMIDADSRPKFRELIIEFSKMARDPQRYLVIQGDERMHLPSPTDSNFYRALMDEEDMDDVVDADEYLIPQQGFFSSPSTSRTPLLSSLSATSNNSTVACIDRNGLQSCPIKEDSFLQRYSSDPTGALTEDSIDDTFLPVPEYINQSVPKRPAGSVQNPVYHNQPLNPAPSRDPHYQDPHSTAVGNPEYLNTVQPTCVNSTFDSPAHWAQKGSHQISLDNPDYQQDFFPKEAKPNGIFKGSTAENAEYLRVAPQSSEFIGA
T2 sequence (G3V6K6 25-1209): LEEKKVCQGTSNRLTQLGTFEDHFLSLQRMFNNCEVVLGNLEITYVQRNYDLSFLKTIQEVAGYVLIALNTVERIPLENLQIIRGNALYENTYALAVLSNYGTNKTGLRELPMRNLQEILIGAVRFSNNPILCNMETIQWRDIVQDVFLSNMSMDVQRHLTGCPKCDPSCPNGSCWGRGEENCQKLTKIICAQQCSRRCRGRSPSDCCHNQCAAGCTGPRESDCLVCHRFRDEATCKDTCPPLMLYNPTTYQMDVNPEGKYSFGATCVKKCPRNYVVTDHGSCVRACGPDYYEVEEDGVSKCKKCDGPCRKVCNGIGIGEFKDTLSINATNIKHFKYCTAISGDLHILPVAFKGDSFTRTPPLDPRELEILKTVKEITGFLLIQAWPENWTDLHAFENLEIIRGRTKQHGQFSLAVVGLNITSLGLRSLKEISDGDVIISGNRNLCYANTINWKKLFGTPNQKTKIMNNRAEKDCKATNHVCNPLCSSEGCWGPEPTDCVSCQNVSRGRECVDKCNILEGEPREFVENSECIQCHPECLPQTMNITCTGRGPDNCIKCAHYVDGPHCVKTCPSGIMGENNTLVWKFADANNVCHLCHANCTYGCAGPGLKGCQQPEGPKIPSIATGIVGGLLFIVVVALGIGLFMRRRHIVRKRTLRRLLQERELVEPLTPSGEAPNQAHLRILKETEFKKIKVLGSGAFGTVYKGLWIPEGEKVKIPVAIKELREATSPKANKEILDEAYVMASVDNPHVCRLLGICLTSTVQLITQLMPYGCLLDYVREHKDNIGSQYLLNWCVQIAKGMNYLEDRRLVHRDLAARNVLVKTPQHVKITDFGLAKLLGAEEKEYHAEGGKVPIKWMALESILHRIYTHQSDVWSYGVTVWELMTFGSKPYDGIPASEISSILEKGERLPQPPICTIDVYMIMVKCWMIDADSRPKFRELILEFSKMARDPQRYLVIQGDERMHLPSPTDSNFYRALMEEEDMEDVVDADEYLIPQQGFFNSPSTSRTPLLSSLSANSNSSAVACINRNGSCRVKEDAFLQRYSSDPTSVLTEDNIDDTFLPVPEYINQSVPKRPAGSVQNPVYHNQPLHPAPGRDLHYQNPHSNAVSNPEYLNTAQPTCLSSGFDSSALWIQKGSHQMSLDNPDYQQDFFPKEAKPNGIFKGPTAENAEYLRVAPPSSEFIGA

ICW Screen (EGFR; initial screen): 55.71
ICW Re-Test (EGFR; re-test): 47.05
IC50 ([1]; first value of A431/MDBK pair, read-out: MTT-72 h A431): 8.36 µM
SMILES: COc1ccc(C(Nc2cc(C)ccn2)c2ccc3cccnc3c2O)cc1O (centres unmarked) [AD4-1505]
MTT-72 h A431/MDBK (ratio) ([1]; value in brackets, numerically MDBK value over A431 value, listed as 1505): 1.12
IC50 (MDBK line): 9.33 µM
inhibition of epidermal growth factor binding [2]: inhibitor of epidermal growth factor binding to its receptor
CI @ ED90 ([3]; Combination Index with Iressa at 90% inhibition): 0.59
CI @ ED90 ([3]; Combination Index with Tykerb at 90% inhibition): 0.10
DRI @ ED97 ([3]; effect of the test compound on Iressa): 78
DRI @ ED97 ([3]; effect of the test compound on Tykerb): 203
synergy with Iressa ([3]; based on CI value): shows synergy
synergy with Tykerb ([3]; based on CI value): significant synergy
shift in Tykerb's dose-response curve ([3]; in combination with Tykerb): leftward shift (i.e., greater potency)
IC50 ([3]; read-out: IC50 Iressa + Compound (nM)): 133 nM
